Assay results as given in patent US9802895B2, “Indole and benzimidazolecarboxamides as insecticides and acaricides” (BAYER CROPSCIENCE AKTIENGESELLSCHAFT, priority 2014, dated 2017).

Legend:
[1] = test system: greenhouse red spider mite (Tetranychus urticae); assay: Tetranychus urticae spray test, OP-resistant (TETRUR); assay type: in vivo; details: 100 g/ha, spray, after 6 days
Method: Tetranychus urticae—Spray Test, OP-Resistant (TETRUR)
(§1) Solvent: 78.0 parts by weight of acetone • • 1.5 parts by weight of dimethylformamide
(§2) Emulsifier: alkylaryl polyglycol ether
(§3) To produce a suitable active compound formulation, 1 part by weight of active compound is dissolved using the specified parts by weight of solvent and made up with water containing an emulsifier concentration of 1000 ppm until the desired concentration is attained. To produce further test concentrations, the preparation is diluted with emulsifier-containing water.
Discs of bean leaves (Phaseolus vulgaris) infested by all stages of the greenhouse red spider mite (Tetranychus urticae) are sprayed with an active compound formulation of the desired concentration.
After 6 days, the efficacy in % is determined 100% means that all the spider mites have been killed; 0% means that none of the spider mites have been killed.
Tetranychus urticae—Spray Test; OP-Resistant (TETRUR)
After the desired period of time, the efficacy in % is determined 100% means that all the spider mites have been killed; 0% means that none of the spider mites have been killed.

[2] = test system: engorged adult female cattle ticks (Boophilus microplus); assay: Boophilus microplus injection test (BOOPMI inj); assay type: in vivo; details: assessed after 7 days
Method: Boophilus microplus Injection Test (BOOPMI inj) Solvent: dimethyl sulphoxide To produce a suitable active compound formulation, 10 mg of active compound are mixed with 0.5 ml of solvent and the concentrate is diluted with solvent to the desired concentration. 1 μl of the active compound solution is injected into the abdomen of 5 engorged adult female cattle ticks (Boophilus microplus). The animals are transferred into dishes and kept in a climate-controlled room. The efficacy is assessed after 7 days by laying of fertile eggs. Eggs which are not visibly fertile are stored in a climate-controlled cabinet until the larvae hatch after about 42 days. An efficacy of 100% means that none of the ticks has laid any fertile eggs; 0% means that all the eggs are fertile.

[3] = test system: adult houseflies (Musca domestica); assay: Musca domestica test (MUSCDO); assay type: in vivo; details: 100 ppm, after 2 days
Method: Musca domestica Test (MUSCDO) Solvent: dimethyl sulphoxide To produce a suitable active compound formulation, 10 mg of active compound are mixed with 0.5 ml of dimethyl sulphoxide, and the concentrate is diluted with water to the desired concentration. Vessels containing a sponge treated with sugar solution and the active compound preparation of the desired concentration are populated with 10 adult houseflies (Musca domestica). After 2 days, the kill in % is determined. 100% means that all of the flies have been killed; 0% means that none of the flies have been killed.

[4] = test system: L1 larvae of the Australian sheep blowfly (Lucilia cuprina); assay: Lucilia cuprina test (LUCICU); assay type: in vivo; details: 100 ppm, after 2 days
Method: Lucilia cuprina Test (LUCICU) Solvent: dimethyl sulphoxide To produce a suitable active compound formulation, 10 mg of active compound are mixed with 0.5 ml of dimethyl sulphoxide, and the concentrate is diluted with water to the desired concentration. About 20 L1 larvae of the Australian sheep blowfly (Lucilia cuprina) are transferred into a test vessel containing minced horsemeat and the active compound preparation of the desired concentration. After 2 days, the kill in % is determined 100% means that all the larvae have been killed; 0% means that none of the larvae have been killed.

[5] = log P by HPLC (EEC directive 79/831 Annex V.A8); assay type: physicochemical; details: 43° C., acidic range pH 2.7; for log P: HPLC, reversed-phase column (C18)
Method: a) The determination of the M^+ by LC-MS in the acidic range is effected at pH 2.7, acetonitrile (contains 0.1% formic acid) and water as eluents; linear gradient from 10% acetonitrile to 95% acetonitrile, instrument: Agilent 1100 LC system, Agilent MSD system, HTS PAL. The log P values reported in the tables and Preparation Examples above were determined in accordance with EEC directive 79/831 Annex V.A8 by HPLC (High Performance Liquid Chromatography) using a reversed-phase column (C18). Temperature 43° C. The calibration is effected with unbranched alkan-2-ones (having 3 to 16 carbon atoms), for which the logP values are known.

[6] = test system: adult cat fleas (Ctenocephalides felis); assay: Ctenocephalides felis oral test (CTECFE); assay type: in vivo; details: 100 ppm, oral in cattle blood, after 2 days
Method: Ctenocephalides felis-Oral Test ([…]) Solvent: dimethyl sulphoxide To produce a suitable active compound formulation, 10 mg of active compound are mixed with 0.5 ml of dimethyl sulphoxide. Dilution with citrated cattle blood gives the desired concentration. About 20 unfed adult cat fleas (Ctenocephalides felis) are placed into a chamber which is closed at the top and bottom with gauze. A metal cylinder whose bottom end is closed with parafilm is placed onto the chamber. The cylinder contains the blood/active compound preparation, which can be imbibed by the fleas through the parafilm membrane. After 2 days, the kill in % is determined 100% means that all of the fleas have been killed; 0% means that none of the fleas have been killed.

[7] = test system: caterpillars of the armyworm (Spodoptera frugiperda); assay: Spodoptera frugiperda spray test (SPODFR); assay type: in vivo; details: for efficacy: 100 g/ha, spray, after 7 days
Method: Spodoptera frugiperda—Spray Test (SPODFR) Solvent: 78.0 parts by weight of acetone • • 1.5 parts by weight of dimethylformamide Emulsifier: alkylaryl polyglycol ether To produce a suitable active compound formulation, 1 part by weight of active compound is dissolved using the specified parts by weight of solvent and made up with water containing an emulsifier concentration of 1000 ppm until the desired concentration is attained. To produce further test concentrations, the preparation is diluted with emulsifier-containing water. Leaf discs of maize (Zea mays) are sprayed with an active compound formulation of the desired concentration and, after drying, populated with caterpillars of the armyworm (Spodoptera frugiperda). After 7 days, the efficacy in % is determined 100% means that all the caterpillars have been killed; 0% means that no caterpillars have been killed. Spodoptera frugiperda—Spray Test (SPODFR) Solvent: 78.0 parts by weight of acetone • • 1.5 parts by weight of dimethylformamide Emulsifier: alkylaryl polyglycol ether To produce a suitable active compound formulation, 1 part by weight of active compound is dissolved using the specified parts by weight of solvent and made up with water containing an emulsifier concentration of 1000 ppm until the desired concentration is attained. To produce further test concentrations, the preparation is diluted with emulsifier-containing water. Leaf discs of maize (Zea mays) are sprayed with an active compound formulation of the desired concentration and, after drying, populated with caterpillars of the armyworm (Spodoptera frugiperda). After the desired period of time, the efficacy in % is determined. 100% means that all the caterpillars have been killed; 0% means that no caterpillars have been killed.

[8] = test system: larvae of the mustard beetle (Phaedon cochleariae); assay: Phaedon cochleariae spray test (PHAECO); assay type: in vivo; details: after 7 days
Method: Phaedon cochleariae—Spray Test (PHAECO)
as §1, §2, §3
After 7 days, the efficacy in % is determined. 100% means that all the beetle larvae have been killed; 0% means that no beetle larvae have been killed.

CCn1c(C(=O)NC(c2cc(Cl)c(F)c(Cl)c2F)C(F)(F)F)cc2cc(C(=O)NC3(C(N)=S)CC3)c(Cl)cc21 (single isomer, unassigned) [I-17]
4.27;: log P [5]
100%: efficacy [1] | efficacy (laying of fertile eggs) [2] | efficacy (kill in %) [6] | efficacy [7] | efficacy ([8]; 100 g/ha)
90%: efficacy (kill in %) [4]
80%: efficacy (kill in %) [3]

CCn1c(C(=O)NC(c2cc(Cl)c(F)c(Cl)c2F)C(F)(F)F)cc2cc(C(=O)NC3(C(N)=S)CC3)c(Cl)cc21 (single isomer, unassigned) [I-18]
100%: efficacy [1] | efficacy (laying of fertile eggs) [2] | efficacy (kill in %) [3] | efficacy (kill in %) [4] | efficacy (kill in %) [6] | efficacy [7] | % efficacy ([7]; SPODFR, 0.8 g/ha, 7 dat) | % efficacy ([7]; SPODFR, 4 g/ha, 7 dat) | efficacy ([8]; 100 g/ha)
4.27;: log P [5]

CCn1c(C(=O)NC(c2cc(Cl)c(F)c(Cl)c2F)C(F)(F)F)cc2cc(C(=O)NC3(C(N)=S)CC3)c(Cl)cc21 (stereo not drawn) [I-01, N5-(1-Carbamothioylcyclopropyl)-6-chloro-N2-[1-(3,5-dichloro-2,4-difluorophenyl)-2,2,2-trifluoroethyl]-1-ethylindole-2,5-dicarboxamide]
100%: efficacy [1] | efficacy (laying of fertile eggs) [2] | efficacy (kill in %) [3] | efficacy (kill in %) [4] | efficacy (kill in %) [6] | efficacy [7] | % efficacy (mortality) at a single application rate at 0.8 g/ha ([7]; Spodoptera frugiperda, 168 h, SPODFR, 0.8 g/ha, 7 dat) | % efficacy (mortality) at a single application rate at 4 g/ha ([7]; Spodoptera frugiperda, 168 h, SPODFR, 4 g/ha, 7 dat) | efficacy ([8]; 100 g/ha)
4.25: chromatographic logP ([5]; reversed-phase C18 HPLC column, pH 2.7, HPLC)

CCn1c(C(=O)NC(c2cc(Cl)c(F)c(Cl)c2)C(F)(F)F)cc2cc(C(=O)NC3(C(N)=S)CC3)c(Cl)cc21 (stereo not drawn) [I-02]
4.04: log P [5]
100%: efficacy [1] | efficacy (laying of fertile eggs) [2] | efficacy (kill in %) [3] | efficacy (kill in %) [4] | efficacy (kill in %) [6] | efficacy [7] | % efficacy ([7]; SPODFR, 0.8 g/ha, 7 dat) | % efficacy ([7]; SPODFR, 4 g/ha, 7 dat) | efficacy ([8]; 100 g/ha)

CCn1c(C(=O)NC(c2ccc(F)c(Br)c2)C(F)(F)F)cc2cc(C(=O)NC3(C(N)=S)CC3)c(Cl)cc21 (stereo not drawn) [I-06]
3.64: log P [5]
100%: efficacy [1] | efficacy [7] | % efficacy ([7]; SPODFR, 0.8 g/ha, 7 dat) | % efficacy ([7]; SPODFR, 4 g/ha, 7 dat) | efficacy ([8]; 100 g/ha)

Cn1c(C(=O)NC(c2cc(Cl)c(F)c(Cl)c2F)C(F)(F)F)cc2cc(C(=O)NC3(C(N)=S)CC3)c(Cl)cc21 (stereo not drawn) [I-08]
3.94: log P [5]
100%: efficacy [1] | efficacy (laying of fertile eggs) [2] | efficacy (kill in %) [4] | efficacy (kill in %) [6] | efficacy [7] | % efficacy ([7]; SPODFR, 0.8 g/ha, 7 dat) | % efficacy ([7]; SPODFR, 4 g/ha, 7 dat) | efficacy ([8]; 100 g/ha)

CCn1c(C(=O)NC(c2cccc(Cl)c2F)C(F)(F)F)cc2cc(C(=O)NC3(C(N)=S)CC3)c(Cl)cc21 (stereo not drawn) [I-11]
100%: efficacy [1] | efficacy (laying of fertile eggs) [2] | efficacy (kill in %) [6] | efficacy [7] | efficacy ([8]; 100 g/ha)
3.69: log P [5]

C#CCn1c(C(=O)NC(c2cc(Cl)c(F)c(Cl)c2F)C(F)(F)F)cc2cc(C(=O)NC3(C(N)=S)CC3)c(Cl)cc21 (stereo not drawn) [I-12]
100%: efficacy (laying of fertile eggs) [2] | efficacy (kill in %) [3] | efficacy (kill in %) [4] | efficacy (kill in %) [6] | efficacy [7] | % efficacy ([7]; SPODFR, 0.8 g/ha, 7 dat) | % efficacy ([7]; SPODFR, 4 g/ha, 7 dat) | efficacy ([8]; 100 g/ha)
3.94: log P [5]

C#CCn1c(C(=O)NC(c2cc(Cl)c(F)c(Cl)c2)C(F)(F)F)cc2cc(C(=O)NC3(C(N)=S)CC3)c(Cl)cc21 (stereo not drawn) [I-14]
3.81: log P [5]
100%: efficacy [1] | efficacy [7] | efficacy ([8]; 100 g/ha)

Cn1c(C(=O)NC(c2cc(Cl)c(F)c(Cl)c2)C(F)(F)F)cc2cc(C(=O)NC3(C(N)=S)CC3)c(Cl)cc21 (stereo not drawn) [I-15]
3.76: log P [5]
100%: efficacy [7] | % efficacy ([7]; SPODFR, 4 g/ha, 7 dat) | efficacy ([8]; 20 g/ha)
90%: efficacy [1]
83%: % efficacy ([7]; SPODFR, 0.8 g/ha, 7 dat)

C#CCn1c(C(=O)NC(c2cc(Cl)c(Cl)c(Cl)c2)C(F)(F)F)cc2cc(C(=O)NC3(C(N)=S)CC3)c(Cl)cc21 (stereo not drawn) [I-21]
4.09: log P [5]
100%: efficacy [1] | efficacy [7] | % efficacy ([7]; SPODFR, 0.8 g/ha, 7 dat) | % efficacy ([7]; SPODFR, 4 g/ha, 7 dat) | efficacy ([8]; 100 g/ha)

CCn1c(C(=O)NC(c2cc(F)cc(F)c2)C(F)F)cc2cc(C(=O)NC3(C(N)=S)CC3)c(Cl)cc21 (stereo not drawn) [I-23]
83%: efficacy [7]
3.07: log P [5]
100%: efficacy [1] | efficacy (laying of fertile eggs) [2] | efficacy (kill in %) [6] | efficacy ([8]; 100 g/ha)
90%: efficacy (kill in %) [4]

CCn1c(C(=O)NC(c2ccc(Cl)c(Cl)c2)C(F)F)cc2cc(C(=O)NC3(C(N)=S)CC3)c(Cl)cc21 (stereo not drawn) [I-25]
100%: efficacy [1] | efficacy (laying of fertile eggs) [2] | efficacy (kill in %) [4] | efficacy (kill in %) [6] | efficacy [7] | efficacy ([8]; 100 g/ha)
3.54: log P [5]

CCn1c(C(=O)NC(c2cc(Cl)c(F)c(Cl)c2F)C(F)F)cc2cc(C(=O)NC3(C(N)=S)CC3)c(Cl)cc21 (stereo not drawn) [I-28]
100%: efficacy [1] | efficacy [7] | efficacy ([8]; 100 g/ha)
3.90: log P [5]
